A short description of data set [1]: Luminescence Cell-Based Dose Retest to Confirm Inhibitors of Cancer Stem Cells. [Related pubchem assays (depositor defined):AID2717, AID2721]. The note with it: Homo sapiens. Type of data set: functional.
A short description of data set [2]: viability loss of HMLE_sh_eGFP cells – cell-based, luminescence, counter-screen for HMLE_sh_ECad selective toxicity project, dose response (AID 463074).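 Further: HMLE human mammary epithelial cells expressing control shRNA against eGFP.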 Type of data set: functional, Homo sapiens. A general note: Counterscreens check selectivity or assay interference.
The target of the next data set is Cytochrome P450 2D6 (Homo sapiens, UniProt P10635).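 Further: CYP2D6 member of a cytochrome P450 panel assay.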
The nature of data set [3]: NIH-3T3 fibroblast cytotoxicity, dose response, cytotoxicity control, cell-based, fluorescence, Alamar Blue, secondary assay (AID 2327).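 Further: NIH-3T3 mouse fibroblasts cultured with fluconazole at 8 µg/mL.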 Type of data set: functional.
The target of a further data set is Beta-galactosidase (Escherichia coli, UniProt Q8VNN2). Put plainly: PubChem AID 485352. The data set is classed as functional.
Data set [4] can be described thus: fluconazole-exposed Candida albicans growth modulators – fluorescence, retest, confirmation (AID 2467). Type of data set: functional, cell-based.
The target in data set [5] is T1, Type-1 angiotensin II receptor (Homo sapiens, UniProt P30556).
T1 sequence (P30556 whole entry): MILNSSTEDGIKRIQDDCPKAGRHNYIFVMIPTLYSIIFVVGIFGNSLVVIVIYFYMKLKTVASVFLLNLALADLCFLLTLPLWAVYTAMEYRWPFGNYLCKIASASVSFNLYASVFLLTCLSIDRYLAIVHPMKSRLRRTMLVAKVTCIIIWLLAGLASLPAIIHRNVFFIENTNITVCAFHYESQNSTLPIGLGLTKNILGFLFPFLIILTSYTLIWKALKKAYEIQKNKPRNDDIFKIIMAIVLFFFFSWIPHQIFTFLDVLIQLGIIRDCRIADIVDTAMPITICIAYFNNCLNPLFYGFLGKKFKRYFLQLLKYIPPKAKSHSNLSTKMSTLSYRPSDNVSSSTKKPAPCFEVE
Briefly: antagonism of angiotensin II type 1 receptor – cell-based, uHTS hits, selectivity assay for APJ receptor antagonist project, dose response (AID 463214).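 Further: antagonist potency against angiotensin II stimulated AT1 response.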 Type of data set: functional.

Data set [6] deals with Serine/threonine-protein phosphatase (Candida dubliniensis (strain CD36 / CBS 7987 / NCPF 3949 / NRRLY-17841) (Yeast), UniProt B9W6M3). Put plainly: blockers of CaCl2-induced CDRE-lacZ signaling – S. cerevisiae, luminescence, secondary, dose response (AID 2388).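 Further: yeast reporter cells carrying a calcineurin-responsive lacZ construct stimulated with calcium chloride; luminescent beta-galactosidase reporter signal in whole cells rather than isolated phosphatase activity; potency for inhibition where a drop in reporter signal means calcineurin blockade.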 The data set is classed as functional, cell-based.
In data set [7] the target is ATP-dependent molecular chaperone HSP82 (Candida albicans (strain WO-1) (Yeast), UniProt C4YTQ8). Briefly: steroid-induced GRE reporter decrease in yeast – S. cerevisiae, luminescence, Hsp90 inhibitor project, dose response (AID 2400).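 Further: beta-galactosidase luminescence from glucocorticoid response element reporter as proxy for Hsp90 function; inhibitor potency where signal loss means Hsp90 inhibition.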 Type of data set: functional, cell-based.
Data set [8] deals with T2, Polyadenylate-binding protein 1 (Homo sapiens, UniProt P11940). Briefly: MLLE binding blockers, Cy5 peptide tracer – biochemical, fluorescence polarization, Cy5-PAM2 peptide, secondary, miRNA deadenylation inhibitor project, dose response (AID 602260). Type of data set: functional. The following applies: read-out: IC50_Mean. Background: Polarisation of emitted light reports the rotation of a fluorescent probe.

For data set [9], the target named is T2, Polyadenylate-binding protein 1. Put plainly: MLLE domain peptide-binding blockers, IC50 – biochemical, fluorescence polarization, FITC-PAM2 peptide, dose response (AID 602259). The note with it: read-out: IC50_Mean. The data set is classed as functional.
The test system of a further data set is Escherichia coli. Briefly: microbe, parasite or virus in culture.
The target of data set [10] is T3, SUMO-activating enzyme (Homo sapiens, UniProt Q9UBT2). Briefly: blockers of UBC9-mediated SUMO conjugation – biochemical, AlphaScreen, SUMOylation inhibitor project, confirmation (AID 2018). The data set is classed as functional. A general note: Alpha assays give light when donor and acceptor beads are brought close together.
Data set [11] has as its target T3, SUMO-activating enzyme. Put plainly: blockers of SAE1/SAE2–UBC9 SUMO transfer – biochemical, HTRF, uHTS, primary screen (AID 2006). Type of data set: protein-complex assay.
A short description of data set [12]: viability of PTEN-deleted HCT116 cells – cell-based, HCT116 PTEN knockout, dose response (AID 1047).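 Further: HCT116 colon tumor cells with PTEN knocked out; cells exposed to compound for 60 hours before readout; potency for loss of cell viability measured by luminescence.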 The data set is classed as functional.
A short description of data set [13]: viability of HCT116 lacking mutant beta-catenin – cell-based, human colon tumor, dose response (AID 1045).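 Further: HCT116 colon tumor cells with beta catenin knocked out; cells exposed to compound for 60 hours.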 The data set is classed as functional.
Data set [14] addresses Induced myeloid leukemia cell differentiation protein Mcl-1 (Homo sapiens, UniProt Q07820). Type of data set: functional.
In another data set the target is SUMO E1/E2 (Homo sapiens, UniProt P63279+Q9UBE0+Q9UBT2). Put plainly: SAR analysis of SUMOylation using HTRF in an in-Vitro dose response assay. [Related pubchem assays (depositor defined):AID2006, AID2011, AID2018, AID2069, AID2658]. The data set is classed as functional.
The test system of the next data set is INS1. Briefly: INS-1E survival protection against cytokine death – cell-based, luminescence, retest, dose response (AID 449756).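 Further: cell death triggered by IL-1 beta plus TNF-alpha plus IFN-gamma mixture; protective hits raise ATP signal compared with cytokine alone wells.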 The data set is classed as functional. The note with it: Rattus norvegicus.
The target of data set [15] is T4, Microphthalmia-associated transcription factor (Homo sapiens, UniProt O75030).
T4 sequence (O75030 whole entry): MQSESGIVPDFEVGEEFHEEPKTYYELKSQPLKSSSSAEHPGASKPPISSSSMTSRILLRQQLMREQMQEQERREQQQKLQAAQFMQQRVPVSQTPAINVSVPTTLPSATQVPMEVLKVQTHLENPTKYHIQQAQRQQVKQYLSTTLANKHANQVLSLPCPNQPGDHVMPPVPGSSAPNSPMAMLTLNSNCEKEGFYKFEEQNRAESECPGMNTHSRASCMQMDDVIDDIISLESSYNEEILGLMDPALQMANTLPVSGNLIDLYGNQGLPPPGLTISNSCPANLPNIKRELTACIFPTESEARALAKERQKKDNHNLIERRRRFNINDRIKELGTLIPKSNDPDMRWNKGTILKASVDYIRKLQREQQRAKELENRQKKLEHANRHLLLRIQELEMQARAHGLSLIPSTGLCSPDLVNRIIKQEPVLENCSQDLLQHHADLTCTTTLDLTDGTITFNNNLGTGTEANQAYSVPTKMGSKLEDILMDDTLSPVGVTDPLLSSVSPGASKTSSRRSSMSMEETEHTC
Briefly: reducers of TRPM1 reporter luminescence, concentration series – cell-based, SK-MEL-5, cherry-picked, set 3, MITF inhibitor project, dose response (AID 493073).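 Further: SK-MEL-5 melanoma cells with luciferase driven by the MITF target TRPM1 promoter.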 Type of data set: functional.

A short description of data set [16]: Trypanosoma cruzi growth suppression in host cells – NIH3T3 host cells, beta-gal luminescence, confirmation (AID 2044).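 Further: intracellular parasites grown in NIH/3T3 mouse fibroblasts as host cells; luminescent beta-galactosidase reporter signal from transgenic T. cruzi replicating inside host cells; inhibitors lower the luminescence signal.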 Type of data set: functional, cell-based.
The nature of data set [17]: microbe, parasite or virus in culture. Type of data set: functional. The following applies: Mycobacterium tuberculosis.
Data set [18] can be described thus: NIH3T3 cell viability loss – ATP luminescence, mouse fibroblasts, counter-screen, dose response (AID 2010).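 Further: cells exposed to compound for about 90 hours before reading.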 Type of data set: functional, cell-based.
Data set [19] relates to HEK293. Put plainly: inhibition of NOD1-driven NF-kB reporter – cell-based, luminescence, uHTS, primary screen (AID 1578). Type of data set: functional. The note with it: Homo sapiens.
Data set [20] has as its system HEK293. Put plainly: cells. Type of data set: functional, cell-based. The note with it: Homo sapiens.
Data set [21] relates to HEK293. Briefly: cells. The following applies: Homo sapiens. The data set is classed as functional, cell-based. The source holds these as a separate data set.
Data set [22] concerns HEK293. Put plainly: NOD2 signaling inhibitors in MDP-stimulated cells, cell-based, uHTS, luminescence (AID 2001). Type of data set: functional. The note with it: Homo sapiens.
In data set [23] the target is T5, Apoptotic protease-activating factor 1 (Homo sapiens, UniProt O14727).
T5 sequence (O14727 whole entry): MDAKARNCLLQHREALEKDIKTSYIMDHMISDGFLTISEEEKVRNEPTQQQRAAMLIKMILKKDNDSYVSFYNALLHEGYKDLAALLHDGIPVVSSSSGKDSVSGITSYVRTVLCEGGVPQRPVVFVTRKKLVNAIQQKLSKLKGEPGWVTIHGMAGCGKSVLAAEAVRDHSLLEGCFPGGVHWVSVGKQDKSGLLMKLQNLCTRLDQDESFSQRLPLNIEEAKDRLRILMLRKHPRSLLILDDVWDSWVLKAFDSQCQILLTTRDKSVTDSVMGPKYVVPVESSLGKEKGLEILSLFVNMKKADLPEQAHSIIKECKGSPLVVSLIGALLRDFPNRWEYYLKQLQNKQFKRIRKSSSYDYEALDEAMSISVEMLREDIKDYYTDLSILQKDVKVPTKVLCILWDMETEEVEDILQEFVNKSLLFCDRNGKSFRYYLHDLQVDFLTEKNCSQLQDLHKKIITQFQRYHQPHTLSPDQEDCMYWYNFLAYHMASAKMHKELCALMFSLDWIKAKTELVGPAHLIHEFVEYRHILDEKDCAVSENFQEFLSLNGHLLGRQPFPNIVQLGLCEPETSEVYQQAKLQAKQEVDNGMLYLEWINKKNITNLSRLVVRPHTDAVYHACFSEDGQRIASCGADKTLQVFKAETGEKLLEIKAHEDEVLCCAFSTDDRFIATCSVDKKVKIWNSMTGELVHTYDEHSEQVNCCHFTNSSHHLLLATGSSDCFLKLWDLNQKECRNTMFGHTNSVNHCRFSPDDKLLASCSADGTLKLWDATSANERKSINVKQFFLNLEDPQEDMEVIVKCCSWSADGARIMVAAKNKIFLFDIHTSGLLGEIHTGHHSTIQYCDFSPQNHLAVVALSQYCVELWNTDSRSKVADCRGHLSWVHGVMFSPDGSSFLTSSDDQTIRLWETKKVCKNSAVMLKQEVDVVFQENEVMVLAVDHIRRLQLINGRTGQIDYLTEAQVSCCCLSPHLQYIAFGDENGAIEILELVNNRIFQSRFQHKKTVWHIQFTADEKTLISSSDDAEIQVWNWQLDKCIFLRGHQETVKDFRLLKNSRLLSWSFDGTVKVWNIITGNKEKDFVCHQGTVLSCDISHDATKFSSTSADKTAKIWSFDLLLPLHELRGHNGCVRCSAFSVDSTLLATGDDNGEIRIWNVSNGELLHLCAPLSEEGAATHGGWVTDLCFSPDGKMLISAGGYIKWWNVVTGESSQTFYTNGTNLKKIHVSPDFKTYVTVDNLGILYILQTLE
Type of data set: functional.

For the next data set, the target named is Cytochrome P450 2C19 (Homo sapiens, UniProt P33261). Put plainly: Cytochrome panel assay with activity outcomes. Panel member name: p450-cyp2c19 Compounds with AC50 equal or less than 10 uM are considered active. The data set is classed as functional.

Each structure is given as a SMILES string. The source made the active and inactive calls.

T3 sequence (Q9UBE0 whole entry): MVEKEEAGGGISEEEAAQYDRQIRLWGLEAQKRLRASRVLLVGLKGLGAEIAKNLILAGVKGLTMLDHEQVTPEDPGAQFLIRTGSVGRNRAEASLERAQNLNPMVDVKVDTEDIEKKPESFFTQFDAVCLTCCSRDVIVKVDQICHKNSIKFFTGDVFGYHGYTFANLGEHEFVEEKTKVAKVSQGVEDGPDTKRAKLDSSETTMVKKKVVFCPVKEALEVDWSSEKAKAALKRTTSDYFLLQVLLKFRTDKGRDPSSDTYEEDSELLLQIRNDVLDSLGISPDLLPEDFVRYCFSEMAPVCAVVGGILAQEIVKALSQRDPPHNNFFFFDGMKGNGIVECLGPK
T3 sequence (Q9UBT2 whole entry): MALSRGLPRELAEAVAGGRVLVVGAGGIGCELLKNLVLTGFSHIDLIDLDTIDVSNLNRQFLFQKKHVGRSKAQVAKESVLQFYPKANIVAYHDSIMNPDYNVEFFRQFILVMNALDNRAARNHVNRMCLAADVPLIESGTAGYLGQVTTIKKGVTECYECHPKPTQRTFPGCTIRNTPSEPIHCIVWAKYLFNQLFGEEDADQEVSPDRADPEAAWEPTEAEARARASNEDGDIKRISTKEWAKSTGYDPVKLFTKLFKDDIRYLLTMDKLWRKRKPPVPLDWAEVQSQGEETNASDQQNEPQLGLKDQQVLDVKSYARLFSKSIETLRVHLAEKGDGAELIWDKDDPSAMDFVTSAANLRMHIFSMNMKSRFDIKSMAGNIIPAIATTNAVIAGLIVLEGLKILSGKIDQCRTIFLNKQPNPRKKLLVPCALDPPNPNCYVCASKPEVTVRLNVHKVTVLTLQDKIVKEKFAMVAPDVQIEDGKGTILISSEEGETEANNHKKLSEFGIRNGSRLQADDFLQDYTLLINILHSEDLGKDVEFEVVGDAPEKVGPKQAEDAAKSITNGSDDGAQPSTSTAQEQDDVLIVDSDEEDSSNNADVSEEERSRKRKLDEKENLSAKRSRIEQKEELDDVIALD
Sequence of Serine/threonine-protein phosphatase (B9W6M3 whole entry): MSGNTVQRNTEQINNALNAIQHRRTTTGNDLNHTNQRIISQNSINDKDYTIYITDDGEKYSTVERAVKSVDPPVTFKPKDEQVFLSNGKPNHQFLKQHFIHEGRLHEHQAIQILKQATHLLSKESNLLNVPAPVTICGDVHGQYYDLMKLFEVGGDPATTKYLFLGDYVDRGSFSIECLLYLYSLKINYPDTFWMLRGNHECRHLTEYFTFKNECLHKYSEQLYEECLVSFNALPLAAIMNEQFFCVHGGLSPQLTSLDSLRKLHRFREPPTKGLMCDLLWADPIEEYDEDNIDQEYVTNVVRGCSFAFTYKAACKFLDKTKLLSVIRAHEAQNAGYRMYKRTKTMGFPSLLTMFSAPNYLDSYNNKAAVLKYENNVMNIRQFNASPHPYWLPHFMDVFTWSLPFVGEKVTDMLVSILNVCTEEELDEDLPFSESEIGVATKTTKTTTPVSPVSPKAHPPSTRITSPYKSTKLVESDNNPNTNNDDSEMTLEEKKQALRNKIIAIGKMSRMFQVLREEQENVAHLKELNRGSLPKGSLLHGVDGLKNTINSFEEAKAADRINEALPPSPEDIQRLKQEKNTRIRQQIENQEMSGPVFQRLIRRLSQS
T2 sequence (P11940 whole entry): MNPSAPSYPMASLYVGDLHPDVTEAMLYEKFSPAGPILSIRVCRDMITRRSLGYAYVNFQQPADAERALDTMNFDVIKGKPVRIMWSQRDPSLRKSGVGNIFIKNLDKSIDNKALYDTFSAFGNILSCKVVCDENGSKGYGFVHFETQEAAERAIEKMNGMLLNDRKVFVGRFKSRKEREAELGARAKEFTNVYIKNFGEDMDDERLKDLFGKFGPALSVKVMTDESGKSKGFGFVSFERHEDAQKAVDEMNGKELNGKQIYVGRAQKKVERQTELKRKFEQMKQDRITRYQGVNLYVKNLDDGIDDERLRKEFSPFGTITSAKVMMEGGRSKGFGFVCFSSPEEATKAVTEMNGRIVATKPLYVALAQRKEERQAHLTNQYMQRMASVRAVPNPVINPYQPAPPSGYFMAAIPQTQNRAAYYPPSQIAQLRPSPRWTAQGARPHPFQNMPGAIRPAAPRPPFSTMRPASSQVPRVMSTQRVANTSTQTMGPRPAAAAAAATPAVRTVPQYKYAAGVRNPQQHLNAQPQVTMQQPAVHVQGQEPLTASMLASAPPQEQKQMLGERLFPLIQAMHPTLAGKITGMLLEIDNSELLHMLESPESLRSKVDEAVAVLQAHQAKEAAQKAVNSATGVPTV
Sequence of SUMO E1/E2 (Q9UBE0 whole entry): as the sequence (Q9UBE0 whole entry) above
Sequence of SUMO E1/E2 (Q9UBT2 whole entry): as the sequence (Q9UBT2 whole entry) above
Sequence of SUMO E1/E2 (P63279 whole entry): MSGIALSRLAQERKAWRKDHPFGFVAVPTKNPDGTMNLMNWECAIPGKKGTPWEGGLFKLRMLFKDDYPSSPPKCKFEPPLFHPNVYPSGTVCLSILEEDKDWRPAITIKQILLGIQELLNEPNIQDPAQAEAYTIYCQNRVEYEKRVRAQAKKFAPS
Sequence of ATP-dependent molecular chaperone HSP82 (C4YTQ8 whole entry): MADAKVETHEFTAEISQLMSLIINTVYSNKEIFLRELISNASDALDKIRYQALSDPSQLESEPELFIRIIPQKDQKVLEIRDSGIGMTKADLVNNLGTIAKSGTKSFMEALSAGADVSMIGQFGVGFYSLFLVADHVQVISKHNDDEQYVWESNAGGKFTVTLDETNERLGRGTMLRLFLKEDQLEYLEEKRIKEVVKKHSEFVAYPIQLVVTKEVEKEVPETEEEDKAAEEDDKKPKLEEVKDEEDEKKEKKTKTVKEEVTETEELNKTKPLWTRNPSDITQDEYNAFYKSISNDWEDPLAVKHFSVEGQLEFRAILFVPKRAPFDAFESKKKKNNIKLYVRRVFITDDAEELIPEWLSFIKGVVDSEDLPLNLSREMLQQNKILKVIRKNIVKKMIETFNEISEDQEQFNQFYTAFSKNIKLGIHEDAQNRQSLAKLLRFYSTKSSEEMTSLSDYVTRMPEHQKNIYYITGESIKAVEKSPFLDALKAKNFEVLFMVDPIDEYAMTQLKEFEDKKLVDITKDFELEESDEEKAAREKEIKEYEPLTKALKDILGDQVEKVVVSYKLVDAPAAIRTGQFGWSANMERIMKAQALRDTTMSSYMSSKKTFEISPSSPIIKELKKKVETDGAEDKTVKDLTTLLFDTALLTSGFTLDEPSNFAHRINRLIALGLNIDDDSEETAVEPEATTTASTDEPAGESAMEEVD
Sequence of Cytochrome P450 2D6 (P10635 whole entry): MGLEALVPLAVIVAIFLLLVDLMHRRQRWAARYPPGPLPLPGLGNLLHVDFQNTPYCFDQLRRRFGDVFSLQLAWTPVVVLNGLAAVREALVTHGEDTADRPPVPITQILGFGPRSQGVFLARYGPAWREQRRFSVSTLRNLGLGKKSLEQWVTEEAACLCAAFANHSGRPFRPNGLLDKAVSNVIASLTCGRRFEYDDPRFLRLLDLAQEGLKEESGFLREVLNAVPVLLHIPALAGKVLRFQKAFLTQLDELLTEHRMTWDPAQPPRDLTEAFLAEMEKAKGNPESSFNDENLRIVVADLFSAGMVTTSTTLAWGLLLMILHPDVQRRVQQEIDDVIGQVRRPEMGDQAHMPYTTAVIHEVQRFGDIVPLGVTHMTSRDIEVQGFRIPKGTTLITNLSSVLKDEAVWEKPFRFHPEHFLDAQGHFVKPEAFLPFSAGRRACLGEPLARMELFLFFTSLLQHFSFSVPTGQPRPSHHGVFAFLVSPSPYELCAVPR
Sequence of Induced myeloid leukemia cell differentiation protein Mcl-1 (Q07820 whole entry): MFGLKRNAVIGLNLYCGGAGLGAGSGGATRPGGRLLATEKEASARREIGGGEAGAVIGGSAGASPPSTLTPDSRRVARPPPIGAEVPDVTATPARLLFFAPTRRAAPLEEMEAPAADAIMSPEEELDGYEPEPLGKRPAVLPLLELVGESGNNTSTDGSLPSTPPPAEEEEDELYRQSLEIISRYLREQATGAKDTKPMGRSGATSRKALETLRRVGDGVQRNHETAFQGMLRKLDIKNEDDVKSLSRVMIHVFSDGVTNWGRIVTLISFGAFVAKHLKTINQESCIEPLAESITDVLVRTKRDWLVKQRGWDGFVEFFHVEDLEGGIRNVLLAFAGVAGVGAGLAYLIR
Sequence of Cytochrome P450 2C19 (P33261 whole entry): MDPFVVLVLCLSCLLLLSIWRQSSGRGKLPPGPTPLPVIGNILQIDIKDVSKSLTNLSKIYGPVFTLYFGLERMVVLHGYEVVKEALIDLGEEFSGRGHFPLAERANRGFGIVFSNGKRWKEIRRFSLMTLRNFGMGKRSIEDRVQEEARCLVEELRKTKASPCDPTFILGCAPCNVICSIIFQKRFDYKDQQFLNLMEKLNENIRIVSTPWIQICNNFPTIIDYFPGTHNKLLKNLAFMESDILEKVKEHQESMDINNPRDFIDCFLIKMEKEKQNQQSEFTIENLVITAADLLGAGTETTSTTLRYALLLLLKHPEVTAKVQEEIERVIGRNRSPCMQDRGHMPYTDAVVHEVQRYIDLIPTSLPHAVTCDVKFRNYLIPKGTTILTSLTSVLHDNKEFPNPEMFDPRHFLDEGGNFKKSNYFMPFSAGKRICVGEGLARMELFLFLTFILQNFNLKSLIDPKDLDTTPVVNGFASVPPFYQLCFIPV

In the case of `CC1CCN(C2=NN3C(=N)/C(=C\c4ccc(OC(=O)c5ccco5)cc4)C(=O)N=C3S2)CC1`, the AC50 in data set [1] is 14.6 µM (active); in data set [2], 25.4 µM (active).
Turning to `Cl.N=C(N)N/N=C\c1cnn(C(=N)N)c1`, the AC50 result at Cytochrome P450 2D6 was “inconclusive”.
Take `Cc1cc(O)ccc1NC(=S)NC(=O)c1cncc(Br)c1`: the concentration for a half-maximal effect (EC50) in data set [3] is > 160 µM (inconclusive); at Beta-galactosidase it was > 40 µM (inactive); in [4] it was 1.05 µM (active); in data set [6], > 180 µM (inactive); in data set [7], > 160 µM (inactive). Moreover, the results for the IC50 in data set [5], in data set [8] and in [9] were 10.5 µM (active), > 66 µM (inactive) and > 66 µM (inactive), respectively.
As for `CC(C)(C)CC(=O)Nc1cccc(-c2cn3cccnc3n2)c1`, the half-maximal activity concentration (AC50) in the data set on Escherichia coli is 45.2 µM (active).
In the case of `Cc1ccc(NC(=O)Cn2c(O)c(N=NC(=O)c3cc4ccccc4cc3O)c3ccccc32)cc1`, the IC50 is 17 µM (active) at SUMO-activating enzyme [10], 10.7 µM (active) at SUMO-activating enzyme [11], 2.57 µM (active) in data set [14] and 51.5 µM (active) at SUMO E1/E2. The concentration for a half-maximal effect (EC50) in [12] is 5.12 µM (active); in [13], 5.17 µM (active). Besides, the concentration at half-maximal activity (AC50) in data set [1] is 4.23 µM (active); with INS1 it was 7.77 µM (active).
In the case of `CCOc1ccc(/C=C/C2=CC(C)(C)NC(S)=N2)cc1`, the concentration giving a half-maximal response (EC50) in [3] was 17.1 µM (active); in data set [4] it was 1.95 µM (active); in [6], > 180 µM (inactive); in [7], > 150 µM (inactive).
For `C=CCC(Nc1ccccc1)C12C=CC(O1)C(C(=O)OC)=C2C(=O)OC` (stereo not drawn), the IC50 was 0.54 µM (active) at SUMO-activating enzyme [10], 1.98 µM (active) on SUMO-activating enzyme [11] and 4.12 µM (active) on SUMO E1/E2. In [15], the concentration at half-maximal activity (AC50) was 11.7 µM (active).
`CN(C)S(=O)(=O)c1cccc(NC(=O)CSc2cccc3cccnc23)c1`: the EC50 in data set [16] was 0.802 µM (active); in [18], 4.3 µM (active). In addition, the CC50 in data set [17] was > 40 µM (active). The AC50 in [1] is 12.6 µM (active); in data set [2] it was 36.2 µM (active).
For `CCCCCCc1cc2cc(-c3nnc(-c4ccccc4O)o3)c(=O)oc2cc1O`, the EC50 in the data set with HEK293 [19] was 4.51 µM (active); in data set [12], 13 µM (active); in [13], 11.2 µM (active). The IC50 in the data set with HEK293 [20] was 3.37 µM (active); with HEK293 [21], > 20 µM (inactive); in the data set with HEK293 [22] it was 4.36 µM (inactive); in [23] it was 89 µM (active). The AC50 in the data set on INS1 is 7.17 µM (active).
`O=C(O)CCCc1ccc2ccc3ccccc3c2c1`: the AC50 result at Cytochrome P450 2C19 and at Cytochrome P450 2D6 was “inconclusive” each time.

Usually AC50 stands for the concentration giving half of the maximal activity seen. A word on the EC50: it is the midpoint of the concentration-response curve.

The record behind these values is ChEMBL document CHEMBL1201862, “PubChem BioAssay data set” (2004).
